Measured values reported in patent publication US20240391882A1 (Mirati Therapeutics, Inc., priority 2023, published 2024).

Assays:
Assay type in all cases: cell-based
[1] = system: pAKT in T47D (PI3Kα H1047R mutant) cells; test: Inhibition of pAKT (alphaLISA Surefire Ultra AKT 1/2/3 pS473) in T47D cells; details: Homo sapiens; T47D (PI3Kα H1047R mutant) cells, 24 hr compound incubation, alphaLISA pS473; read-out: T47D (H1047R) pAKT 24 hr (IC50)
Procedure, shortened: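 AlphaLISA read-out of AKT pS473 in lysates after roughly 24 h compound exposure at 37° C in HBSS. Ten concentrations, 1:4 dilutions from a 10.4 μm top dose. Percent of control uses alpelisib at 3.125 μm as background and DMSO as vehicle; four-parameter curve gives IC50.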

[2] = system: pAKT in SKBR3 (PI3Kα wild type) cells; test: Inhibition of pAKT (alphaLISA Surefire Ultra AKT 1/2/3 pS473) in SKBR3 cells; details: Homo sapiens, SK-BR-3, approximately 24 hours treatment, read-out: SKBR3 (WT) pAKT IC50
Protocol: The ability of a compound of Formula (I) to inhibit the formation of pAKT was measured using alphaLISA Surefire Ultra AKT 1/2/3 (pS473) Assay Kit (#ALSU-PAKT-B50K) was obtained from Perkin Elmer (Waltham, MA).
To prepare assay plates for pAKT alphaLISA assays, cells were trypsinized, resuspended in fresh media, and viable cells were counted utilizing trypan blue exclusion. Prior to seeding, cells were washed with PBS and resuspended in HBSS (Gibco, #14025092). T47D (12,000/w), SKBR3 (12,000/w), or MKN1 (24,000/w) cells were seeded at 12 μl per well in a solid white flat bottom 384 cell culture plate (Perkin Elmer #6007680).
Immediately after seeding, cells were dosed using an Echo Liquid Handler (Beckman Coulter) with compounds at a 10.4 μm starting concentration and serially diluted (1:4) for a total of 10 concentrations. […] Plates were then imaged the following day using a CLARIOstar microplate reader (BMG Labtech, Germany).
Percent of control values were calculated by subtracting the average signal from the positive control (alpelisib) treated wells from all treated wells (including DMSO control wells) and then divided by the average signal from the vehicle DMSO treated control wells. Percent of vehicle control values were plotted as log(inhibitor) vs. response—Variable slope (four parameters) for curve fitting and IC50 values were determined using XLfit.

[3] = system: T47D (PI3Kα H1047R mutant) cells; test: Cell viability (CellTiter-Glo 2.0) in T47D cells; details: Homo sapiens, T47D, 72 h, approximately 72 hours
Procedure, shortened: (§1)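 IC50 values derive from four-parameter fits of CellTiter-Glo luminescence expressed as percent of vehicle control. Cells (T47D or SKBR3) were plated at 1000/well the day before dosing and incubated about 72 h at 37° C with a 10-point, 1:4 series starting at 10 μm.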

[4] = system: SKBR3 (PI3Kα wild type) cells; test: Cell viability (CellTiter-Glo 2.0) in SKBR3 cells; details: Homo sapiens, SK-BR-3; SKBR3 (PI3Kα wild type) cells, approximately 72 hours, CellTiter-Glo 2.0; read-out: SKBR3 (WT) Viability IC50
Procedure, shortened: as §1

Row | Compound | IC50 [1] [nM] | IC50 [2] [nM] | IC50 [3] [nM] | IC50 [4] [nM]
1 | Cc1cc(C(C)Nc2ccccc2C(=O)O)c2nc(N3CCCCC3)c(C#N)nc2c1 (stereo not shown) [Example 1, 2-((1-(2-cyano-7-methyl-3-(piperidin-1-yl)quinoxalin-5-yl)ethyl)amino)benzoic acid] | 39 | > 10000 | 456 | > 10000
2 | Cc1cc([C@@H](C)Nc2ccc(Cl)nc2C(=O)O)c2nc(N3CCC[C@@H]([C@@H](C)O)C3)c(C#N)nc2c1 [Example 261D, 6-chloro-3-(((R)-1-(2-cyano-3-((R)-3-((R)-1-hydroxyethyl)piperidin-1-yl)-7-methylquinoxalin-5-yl)ethyl)amino)picolinic acid] | 1.2 |  | 76 | > 10000
3 | Cc1cc([C@@H](C)Nc2ccc(Cl)nc2C(=O)O)c2nc(N3CCCC(F)(F)CC3)c(C#N)nc2c1 [Example 847, (R)-6-chloro-3-((1-(2-cyano-3-(4,4-difluoroazepan-1-yl)-7-methylquinoxalin-5-yl)ethyl)amino)picolinic acid] | 1.8 |  | 59 | 4940
4 | Cc1cc([C@@H](C)Nc2ccc(Cl)nc2C(=O)O)c2nc(N3C[C@H]4CSC[C@H]4C3)c(C#N)nc2c1 [Example 848, 6-chloro-3-(((R)-1-(2-cyano-7-methyl-3-cis-tetrahydro-1h-thieno[3,4-c]pyrrol-5(3H)-ylquinoxalin-5-yl)ethyl)amino)picolinic acid] | 1.7 |  | 90 | 7680
